The subject of assay [1] is Salmonella enterica ATCC 13076. Type of assay: cell-based. The note with it: CAMHII, 18 h, at least 85 % growth inhibition. As to the method:
(§1) For details, see the supplemental material.
(§2) 146 Mueller Hinton 2 broth (CAMHII). Darobactins were screened in 12 concentrations
(§3) The same concentrations were tested for
(§4) 148 rifampicin, tetracycline and gentamycin as positive controls. For tetracycline resistant
(§5) 151 Bacteria suspension without supplemented standard antibiotics or Darobactin
(§6) 152 was used as negative control.
(§7) 154 spectrophotometer at 600 nm. […]
(§8) 171 control. After 24 h incubation, the MIC was determined. All MIC assays were
(§9) 172 performed at least in triplicate.

Assay [2] has as its system Escherichia coli ATCC 35218. Type of assay: cell-based. The note with it: CAMHII, 18 h, at least 85 % growth inhibition. As to the method: as §1, §2, §3, §4, §5, §6, §7, §8, §9
Assay [3] deals with Acinetobacter baumannii ATCC 19606. Type of assay: cell-based. The note with it: CAMHII, 18 h, at least 85 % growth inhibition. The procedure: as §1, §2, §3, §4, §5, §6, §7, §8, §9
The subject of a further assay is E. coli MMGI1. It is filed as cell-based, Escherichia coli. To be noted: CAMHII, 18 h, at least 85 % growth inhibition. The procedure: as §1, §2, §3, §4, §5, §6, §7, §8, §9
The subject of another assay is E. coli K0416. It is filed as cell-based, Escherichia coli. The note with it: CAMHII, 18 h, at least 85 % growth inhibition. As to the method: as §1, §2, §3, §4, §5, §6, §7, §8, §9
A further assay deals with E. coli Survcare052. It is filed as cell-based, Escherichia coli. To be noted: CAMHII, 18 h, at least 85 % growth inhibition. As to the method: as §1, §2, §3, §4, §5, §6, §7, §8, §9
For another assay, the system named is E. coli NRZ14408. Type of assay: cell-based, Escherichia coli. To be noted: CAMHII, 18 h, at least 85 % growth inhibition. As to the method: as §1, §2, §3, §4, §5, §6, §7, §8, §9
In assay [4] the test system is panel of clinically relevant Gram-negative pathogens. The assay can be described thus: MIC comparison with DAR A over the panel of test strains. Type of assay: cell-based. The note with it: whole panel of test strains (Table 2). As to the method: Therefore, additional clinical isolates of A. baumannii were tested.
as §1, §2, §3, §4, §5, §6
154 spectrophotometer at 600 nm. The MIC was defined as the minimum concentration
157 dilution as well, but without shaking. In aerobic conditions, overnight cultures of K.
Exponential cultures (OD 600 of
163 of test compound solutions diluted serially two-fold. After overnight incubation at 37 °C,
The MIC against Salmonella
167 conditions. Overnight cultures grown in brain–heart infusion (BHI) broth,
as §8, §9

Assay [5] deals with Klebsiella pneumoniae DSM30104. Type of assay: cell-based. The note with it: CAMHII, 18 h, at least 85 % growth inhibition. As to the method:
as §1, §2, §3, §4, §5, §6, §7, §9

For the next assay, the system named is various E. coli strains. The assay can be described thus: MIC comparison with DAR A against E. coli strains. Type of assay: cell-based, Escherichia coli.
Text: New antibiotics, such as darobactin, with potency against these pathogens are desperately needed. […] This can be explained by the fact that this is the only derivative investigated not ending with the amino acid phenylalanine, which represents the most frequent amino acid of known and putative β signals from bacterial OM proteins ([7]). Therefore, DAR F would not block the β signal binding site and, thus, would not inhibit the function of BamA. […] Since Ser2 should eliminate the side chain interactions existing between Asn2 and Lys808 and Asn427 of the BamA β1 strand, it is likely that this greatly reduces DAR E’s affinity for the target and, thus, reduces its potency. In contrast to DAR A, DAR D carries an arginine in position 5 instead of lysine. If DAR A is bound to BamA, the Lys5 side chain points away from BamA, thereby enabling interaction with the negatively charged phosphate groups of phosphatidylglycerol and cardiolipin lipids ([7]). Supposedly, arginine could act similarly in the place of lysine, as arginine attracts more phosphate than lysine in membranes and can form more hydrogen bonds with phosphate clusters than lysine ([16]). Arginine is also capable of cardiolipin binding, a further important aspect of DAR and BamA binding ([17]).
as §1
146 Mueller Hinton 2 broth (CAMHII). Darobactins were screened in 12 concentrations […]

The MIC is the lowest concentration that inhibits growth of the organism. A higher MIC goes with a need for much substance.

Converted amounts (≈) assume the structure as drawn. “And” between values parts separate entries of the source, which are not always exact repeats. Equal values may be shown once. A value given as a limit tells only on which side of the number the result lay.

`N=C(N)NCCC1c2ccc3c(c[nH]c3c2)C2Oc3cccc4c(c[nH]c34)C[C@H](N)C(=O)N[C@@H](CC(N)=O)C(=O)N[C@@H]2C(=O)N[C@@H](CO)C(=O)N[C@@H]1C(=O)N[C@@H](CO)C(=O)N[C@@H](Cc1ccccc1)C(=O)O` (stereo partly shown) [DAR D, darobactin D]: the MIC was 64 µg/mL (≈ 64.4 µM) in assay [1]; 64 µg/mL (≈ 64.4 µM) in assay [2]; >64 µg/mL in assay [3]; 64 µg/mL (≈ 64.4 µM) with E. coli MMGI1; 32 µg/mL (≈ 32.2 µM) against E. coli K0416; >64 µg/mL with E. coli Survcare052. For the same compound, the MIC (in the assay with E. coli NRZ14408; in [5]) was 64 µg/mL (≈ 64.4 µM) throughout. The “fold-higher MIC values than DAR A” value in [4] is 8- to 16 fold and 16 fold.
As for `NCCCC1c2ccc3c(c[nH]c3c2)C2Oc3cccc4c(c[nH]c34)C[C@H](N)C(=O)N[C@@H](CO)C(=O)N[C@@H]2C(=O)N[C@@H](CO)C(=O)N[C@@H]1C(=O)N[C@@H](CO)C(=O)N[C@@H](Cc1ccccc1)C(=O)O` (stereo partly shown) [DAR E, darobactin E], the MIC in assay [1] was 32 µg/mL (≈ 34.1 µM); in assay [2] it was 32 µg/mL (≈ 34.1 µM); in assay [3], >64 µg/mL; against E. coli MMGI1, 32 µg/mL (≈ 34.1 µM); with E. coli K0416, 32 µg/mL (≈ 34.1 µM); with E. coli Survcare052 it was 64 µg/mL (≈ 68.2 µM). The MIC (against E. coli NRZ14408; in [5]) was 32 µg/mL (≈ 34.1 µM) in each case. Moreover, the “fold-higher MIC values than DAR A” value in assay [4] is 8- to 16 fold. Besides, in the assay with various E. coli strains, the “fold decrease in potency compared to DAR A” value was 8- to 16 fold.

(Values after article PMC8694152, “Mutasynthetic Production and Antimicrobial Characterization of Darobactin Analogs” (Microbiology Spectrum, 2021).)
